Laboratory results as given in ChEMBL document CHEMBL3044527, “Involvement of melanin synthesis and reactive oxygen species in phytotoxic action of l-DOPA in carrot cells” (2007).
The source made the active and inactive calls. No cut-off for these calls is given here.

Columns and labels:
Assay type in all cases: functional
Daucus carota [1] = assay: Phytotoxicity against Daucus carota (carrot) cells grown in culture assessed as melanin per packed cell volume at 1 mM after 6 days by spectrophotometric analysis in presence of alpha-tocopherol (reference value: 27.2 ug per packed cell volume)
Daucus carota [2] = assay: Phytotoxicity against Daucus carota (carrot) cells grown in culture assessed as melanin per packed cell volume at 1 mM after 4 days by spectrophotometric analysis in presence of alpha-tocopherol (reference value: 21.3 ug per packed cell volume)
Daucus carota [3] = assay: Phytotoxicity against Daucus carota (carrot) cells grown in culture assessed as melanin per packed cell volume at 1 mM after 2 days by spectrophotometric analysis in presence of alpha-tocopherol (reference value: 23.7 ug per packed cell volume)
Daucus carota [4] = assay: Phytotoxicity against Daucus carota (carrot) cells grown in culture assessed as melanin per packed cell volume at 1 mM after 6 days by spectrophotometric analysis in presence of ascorbic acid (reference value: 27.2 ug per packed cell volume)
Daucus carota [5] = assay: Phytotoxicity against Daucus carota (carrot) cells grown in culture assessed as melanin per packed cell volume at 1 mM after 4 days by spectrophotometric analysis in presence of ascorbic acid (reference value: 21.3 ug per packed cell volume)
Daucus carota [6] = assay: Phytotoxicity against Daucus carota (carrot) cells grown in culture assessed as melanin per packed cell volume at 1 mM after 2 days by spectrophotometric analysis in presence of ascorbic acid (reference value: 23.7 ug per packed cell volume)
Daucus carota [7] = assay: Phytotoxicity against Daucus carota (carrot) cells grown in culture assessed as melanin per packed cell volume at 1 mM after 6 days by spectrophotometric analysis (reference value: 27.2 ug per packed cell volume)
Daucus carota [8] = assay: Phytotoxicity against Daucus carota (carrot) cells grown in culture assessed as melanin per packed cell volume at 1 mM after 4 days by spectrophotometric analysis (reference value: 21.3 ug per packed cell volume)
Daucus carota [9] = assay: Phytotoxicity against Daucus carota (carrot) cells grown in culture assessed as melanin per packed cell volume at 1 mM after 2 days by spectrophotometric analysis (reference value: 23.7 ug per packed cell volume)
Daucus carota [10] = assay: Phytotoxicity against Daucus carota (carrot) cells grown in culture assessed as melanin per packed cell volume at 0.1 mM after 6 days by spectrophotometric analysis (reference value: 27.2 ug per packed cell volume)
Daucus carota [11] = assay: Phytotoxicity against Daucus carota (carrot) cells grown in culture assessed as melanin per packed cell volume at 0.1 mM after 4 days by spectrophotometric analysis (reference value: 21.3 ug per packed cell volume)
Daucus carota [12] = assay: Phytotoxicity against Daucus carota (carrot) cells grown in culture assessed as melanin per packed cell volume at 0.1 mM after 2 days by spectrophotometric analysis (reference value: 23.7 ug per packed cell volume)
Daucus carota [13] = assay: Phytotoxicity against Daucus carota (carrot) cells grown in culture assessed as growth inhibition at 1 mM after 2 to 6 days in presence of SOD relative to control
Daucus carota [14] = assay: Phytotoxicity against Daucus carota (carrot) cells grown in culture assessed as growth inhibition at 1 mM after 2 to 6 days in presence of catalase relative to control
Daucus carota [15] = assay: Phytotoxicity against Daucus carota (carrot) cells grown in culture assessed as growth inhibition at 1 mM after 2 to 6 days in presence of alpha-tocopherol relative to control
Daucus carota [16] = assay: Phytotoxicity against Daucus carota (carrot) cells grown in culture assessed as growth inhibition at 1 mM after 6 days in presence of ascorbic acid relative to control
Daucus carota [17] = assay: Phytotoxicity against Daucus carota (carrot) cells grown in culture assessed as growth inhibition at 1 mM after 4 days in presence of ascorbic acid relative to control
Daucus carota [18] = assay: Phytotoxicity against Daucus carota (carrot) cells grown in culture assessed as growth inhibition at 1 mM after 2 days in presence of ascorbic acid relative to control
Daucus carota [19] = assay: Phytotoxicity against Daucus carota (carrot) cells grown in culture assessed as lipid peroxidation at 1 mM after 2 days by TBARS method in presence of alpha-tocopherol relative to control
Daucus carota [20] = assay: Phytotoxicity against Daucus carota (carrot) cells grown in culture assessed as lipid peroxidation at 1 mM after 2 days by TBARS method in presence of ascorbic acid relative to control
Daucus carota [21] = assay: Phytotoxicity against Daucus carota (carrot) cells grown in culture assessed as lipid peroxidation at 1 mM after 4 to 6 days by TBARS method relative to control
Daucus carota [22] = assay: Phytotoxicity against Daucus carota (carrot) cells grown in culture assessed as lipid peroxidation at 1 mM after 2 days by TBARS method relative to control
Daucus carota [23] = assay: Phytotoxicity against Daucus carota (carrot) cells grown in culture assessed as increase in ROS level at 1 mM after 24 hr by MPEC-based chemiluminescence assay in presence of SOD relative to control
Daucus carota [24] = assay: Phytotoxicity against Daucus carota (carrot) cells grown in culture assessed as increase in ROS level at 1 mM after 24 hr by MPEC-based chemiluminescence assay in presence of catalase relative to control
Daucus carota [25] = assay: Phytotoxicity against Daucus carota (carrot) cells grown in culture assessed as increase in ROS level at 1 mM after 24 hr by MPEC-based chemiluminescence assay in presence of ascorbic acid relative to control
Daucus carota [26] = assay: Phytotoxicity against Daucus carota (carrot) cells grown in culture assessed as increase in ROS level after 24 hr by MPEC-based chemiluminescence assay relative to control
Daucus carota [27] = assay: Phytotoxicity against Daucus carota (carrot) cells grown in culture assessed as growth inhibition at 1 mM after 8 days relative to control; conditions: 192 h, values are per cent of control
Daucus carota [28] = assay: Phytotoxicity against Daucus carota (carrot) cells grown in culture assessed as growth inhibition at 1 mM after 6 days relative to control; conditions: 144 h, values are per cent of control
Daucus carota [29] = assay: Phytotoxicity against Daucus carota (carrot) cells grown in culture assessed as growth inhibition at 1 mM after 2 days relative to control; conditions: 48 h, values are per cent of control
Daucus carota [30] = assay: Phytotoxicity against Daucus carota (carrot) cells grown in culture assessed as growth inhibition at 1 mM after 4 days relative to control; conditions: 96 h, values are per cent of control
Daucus carota [31] = assay: Phytotoxicity against Daucus carota (carrot) cells grown in culture assessed as growth inhibition at 0.1 mM after 8 days relative to control; conditions: 192 h, values are per cent of control
Daucus carota [32] = assay: Phytotoxicity against Daucus carota (carrot) cells grown in culture assessed as growth inhibition at 0.1 mM after 4 days relative to control; conditions: 96 h, values are per cent of control
Daucus carota [33] = assay: Phytotoxicity against Daucus carota (carrot) cells grown in culture assessed as growth inhibition at 0.1 mM after 6 days relative to control; conditions: 144 h, values are per cent of control
Daucus carota [34] = assay: Phytotoxicity against Daucus carota (carrot) cells grown in culture assessed as growth inhibition at 0.1 mM after 2 days relative to control; conditions: 48 h, values are per cent of control

N[C@@H](Cc1ccc(O)c(O)c1)C(=O)O [LEVODOPA]
Activity (Daucus carota [1]): 28.1 µg | Activity (Daucus carota [2]): 27.4 µg | Activity (Daucus carota [3]): 27.9 µg | Activity (Daucus carota [4]): 28.2 µg | Activity (Daucus carota [5]): 22.9 µg | Activity (Daucus carota [6]): 17.9 µg | Activity (Daucus carota [7]): 66.1 µg | Activity (Daucus carota [8]): 42.8 µg | Activity (Daucus carota [9]): 28.4 µg | Activity (Daucus carota [10]): 32.2 µg | Activity (Daucus carota [11]): 31.7 µg | Activity (Daucus carota [12]): 26.8 µg | Activity (Daucus carota [13]): Active | Activity (Daucus carota [14]): Active | Activity (Daucus carota [15]): inactive | Activity (Daucus carota [16]): inactive | Activity (Daucus carota [17]): inactive | Activity (Daucus carota [18]): inactive | Activity (Daucus carota [19]): inactive | Activity (Daucus carota [20]): inactive | Activity (Daucus carota [21]): inactive | Activity (Daucus carota [22]): Active | Activity (Daucus carota [23]): Active | Activity (Daucus carota [24]): Active | Activity (Daucus carota [25]): inactive | Activity (Daucus carota [26]): Active | growth, % of control at 1000 µM (Daucus carota [27]): 64.9% | growth, % of control at 1000 µM (Daucus carota [28]): 60.9% | growth, % of control at 1000 µM (Daucus carota [29]): 62% | growth, % of control at 1000 µM (Daucus carota [30]): 59.6% | growth, % of control at 100 µM (Daucus carota [31]): 83.7% | growth, % of control at 100 µM (Daucus carota [32]): 88.2% | growth, % of control at 100 µM (Daucus carota [33]): 80.9% | growth, % of control at 100 µM (Daucus carota [34]): 84.7%
